Test system: β-sitosterol β-D-glucoside (BSSG) model
Assay: BSSG-induced Parkinson's disease model in rats, 10-month study
Format: in vivo, Male Sprague Dawley rats
Text: Increased intestinal permeability may lead to a leakage of various substances (such as bacterial toxins and xenobiotics), that are normally unable to cross the gut wall, from the intestine into the body proper, which may trigger synthesis of misfolded alpha-synuclein in the enteric wall and its transfer to the brain via n. vagus. The increased intestinal permeability is a typical consequence of epithelial dysfunction caused by all sorts of enteric inflammation. Therefore, induction of the inflammatory process may be used for setting of disease models. […] When fed to rodents, cycad flour triggers a progressive development of neurological deficits, with behavioral and cellular features that closely approximate those observed in patients. Besides neurotoxic properties, BSSG directly interacts with epithelium. It loosens tight junctions in mucosa via increase of intracellular calcium levels and thus increases permeability of epithelium.
Male Sprague Dawley rats were used in a study performed during 10 months. The animals were put on the baseline diet consisting of BSSG, 3 mg/day, 5 doses weekly p.o. in Month 1 to Month 4. […]
The observed parameters: • 1. Quantitative analysis of misfolded α-synuclein in substantia nigra lysate • 2. Quantitative analysis of misfolded α-synuclein in intestinal lysate • 3. Quantitative analysis of misfolded α-synuclein in olfactory bulb lysate • 4. […]
Final analysis at Month 10 to investigate neurodegenerative disease progression: after in vivo tests (locomotion, coordination, and cognitive) a subgroup of animals in each experimental group is sacrificed. […] In addition inflammatory markers such as TNF-α, IL-6, etc. in brain section samples and serum are measured.
In order to evaluate the overall efficacy of rebamipide in Parkinson's disease a Cumulative PD Score was calculated. […]

## O=C(NC(Cc1cc(=O)[nH]c2ccccc12)C(=O)O)c1ccc(Cl)cc1 (stereo not drawn) [Rebamipide, 2-[(4-chlorobenzoyl)amino]-3-(2-oxo-1H-quinolin-4-yl)propanoic acid]
Rebamipide 30 or 200 mg/kg/day p.o. in feed, BSSG 3 mg/day, histological analysis, preliminary results
  alpha-synuclein aggregates in comparison with the placebo group: reduced
Rebamipide 30 or 200 mg/kg/day p.o. in feed, BSSG 3 mg/day, vs placebo, preliminary results
  parameters tested including functional tests: significant improvement
Weighted score of α-synuclein, functional, permeability, inflammatory, olfactory, retinal tests and mortality, rebamipide treated group vs placebo
  Cumulative PD score, better as compared to the placebo group: more than 20%
